System: VE-cadherin (Cdh5) mRNA
Experiment: In vivo endothelial Cdh5 gene silencing after intravenous siCdh5 LNP, tissue mRNA by RT-qPCR
Design: species or system mice
Settings: for RNA delivery to endothelial cells vs DOTAP and EDMPC: formulation screening, summary statement
Excerpt: Cadherin (Cdh5), also known as vascular endothelial cadherin (VE-cadherin) is a useful target gene to evaluate endothelial cell siRNA delivery in that Cdh5 expression is strictly limited to endothelial cells. By quantifying Cdh5 mRNA remaining in the tissues after siCdh5 administration, RNA delivery efficiency to endothelial cells can be evaluated.
Animal Experiments: All animal studies were approved by the MIT Institutional Animal Care and Use Committee (CAC) and were consistent with local, state, and federal regulations as applicable. All experimental procedures were performed with ethical compliance and approval under the guidelines for Division of Comparative Medicine by Massachusetts Institute of Technology. Female C57BL/6 mice (6 weeks) were obtained from Jackson Laboratory, housed in an MIT animal facility, and acclimated for at least 3 days before the initiation of a study.
For intravenous administration, siRNA-lipid nanoparticles diluted in PBS were injected […] using 29 g, 3/10 cc insulin syringes (BD Biosciences) after gentle warming of the animals using a heat lamp. For intramuscular administration, siRNA-lipid nanoparticles diluted in PBS were injected […] using 29 g, 3/10 cc insulin syringes (BD Biosciences).
48-72 hours after injection, organs or tissues including the heart, liver, spleen, lung, kidneys, muscle (quadriceps), and brain were collected and soaked in RNAlater solution (Thermo Fisher) for 12-48 hours at 4° C. and stored at −20° C. after the removal of RNAlater.
Tissue mRNA Quantification by RT-qPCR: Total RNA was isolated from tissues using the TRIzol (Thermo Fisher) and Direct-zol-96 MagBead (Zymo Research), or Quick-RNA MagBead (Zymo Research). Briefly, tissue punches were placed in a deep-well 96 well plate with 4-mm stainless beads and lysed with 350 μL TRIzol, or 250 μL DNA/RNA Shield (Zymo Reaearch) using a GenoGrinder2010. Total RNA was further purified using Direct-zol-96 MagBead (Zymo Research) or Quick-RNA MagBead (Zymo Research) according to the manufacturer's protocol.
cDNA was synthesized using ABI High Capacity cDNA Reverse Transcription Kit (Applied Biosystems #4368814) according to manufacturer instructions. Briefly, 5 μl of a master mix containing 1 μl 10X Buffer, 0.4 μl 25X dNTPs, 1 μl 10X Random primers, 0.5 μl Reverse Transcriptase, and 2.1 μl of water per reaction was added to 5 μl total RNA solution that was isolated using the above protocol. Plates were sealed, mixed, and incubated on a thermal cycler for 10 minutes at 25° C., followed by 2 hours at 37° C. and 5 minutes at 85° C.
Gene expression was analyzed in qPCR with Luna® Universal Probe RT-qPCR Kit (NEB) and Taqman probes-Cdh5 (Mm00486938_m1), and Gusb (Mm01197698_m1) or B2m (Mm00437762_m1). Samples were amplified using a LightCycler 480 qPCR machine (Roche). Cdh5 expression was normalized to B2m or Gusb.

[1] = Example 3: 20% cationic lipid LNPs, siCdh5 0.5 mg/kg i.v.

Structure (SMILES) | delivery to endothelial cells among screened cationic lipids [1] | endothelial delivery, DPTAP (16:0 TAP) vs DSTAP (18:0 TAP) [1] | RNA delivery to endothelial cells vs DOTAP and EDMPC | endothelial delivery, EDMPC (14:0 EPC) vs EDLPC (12:0 EPC) [1]
CCCCCCCCCCCCCCCC(=O)OCC(C[N+](C)(C)C)OC(=O)CCCCCCCCCCCCCCC (centres unmarked) [DPTAP, 1,2-dipalmitoyl-3-trimethylammonium-propane] | most efficacious delivery to endothelial cells | significantly more efficient endothelial delivery | much more efficiently | –
CCCCCCCCCCCCCCCC(=O)OC[C@H](COP(=O)(OCC)OCC[N+](C)(C)C)OC(=O)CCCCCCCCCCCCCCC (some centres unmarked) [EDPPC, 1,2-dipalmitoyl-sn-glycero-3-ethylphosphocholine] | most efficacious delivery to endothelial cells | – | much more efficiently | –
CCCCCCCCCCCCCC(=O)OCCN(CCOC(=O)CCCCCCCCCCCCC)C(=O)C[N+](C)(C)C [DC-6-14, O,O′-ditetradecanoyl-N-(a-trimethylammonioacetyl) diethanolamine] | most efficacious delivery to endothelial cells | – | much more efficiently | –
CCCCCCCCCCCCCC(=O)OC[C@H](COP(=O)(OCC)OCC[N+](C)(C)C)OC(=O)CCCCCCCCCCCCC (some centres unmarked) [EDMPC, 1,2-dimyristoyl-sn-glycero-3-ethylphosphocholine] | – | – | – | more efficient endothelial delivery
